In one experiment the target is human NTSR-1 (Homo sapiens (Human), UniProt P30989). Kind of experiment: radioligand competitive binding assay using ^177Lu labeled C-1 as reference radioligand. The conditions noted are these: for IC50: Nonlin fit, single assay, HT-29 cells. An outline of the steps:
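HT-29 cells expressing human NTSR-1 incubated with ¹⁷⁷Lu-C-1 (0.55 μCi/well) and test compound in RPMI-1640 + 0.25% BSA, 1 h at 37 °C (n=3). Unbound label removed by filtration, cell-bound radioactivity gamma-counted; IC50 from nonlinear regression of displacement.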

A further experiment deals with NTR1 (Homo sapiens (Human), UniProt P30989). The conditions noted are these: cited from earlier work.
NTR1, sequence (P30989 whole entry, species assumed): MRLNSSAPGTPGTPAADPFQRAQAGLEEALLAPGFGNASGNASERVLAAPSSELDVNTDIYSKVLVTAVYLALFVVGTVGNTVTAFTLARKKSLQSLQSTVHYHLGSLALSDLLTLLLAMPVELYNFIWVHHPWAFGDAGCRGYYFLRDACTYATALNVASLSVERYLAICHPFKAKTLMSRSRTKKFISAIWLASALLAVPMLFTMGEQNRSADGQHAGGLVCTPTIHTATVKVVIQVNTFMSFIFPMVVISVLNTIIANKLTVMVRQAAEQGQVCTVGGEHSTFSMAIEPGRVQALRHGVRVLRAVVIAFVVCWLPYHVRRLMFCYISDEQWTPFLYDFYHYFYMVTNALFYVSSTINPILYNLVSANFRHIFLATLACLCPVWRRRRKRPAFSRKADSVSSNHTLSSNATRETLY

Each structure is given as a SMILES string. Where two headings read alike, the source gives them in different places.

human NTSR-1, sequence (P30989 whole entry): as the sequence (P30989 whole entry, species assumed) above

`COc1cccc(OC)c1-c1cc(C(=O)NC2(C(=O)O)C3CC4CC(C3)CC2C4)nn1-c1ccc(C(=O)N(C)CCCN(C)C)cc1C(C)C` (stereo not shown) [Compound C-3, reference compound]: at human NTSR-1 (Mean IC50 of C-1/Mean IC50 of the test compound), the “Relative Binding Affinity” value was determined as 13.7. Moreover, the IC50 at human NTSR-1 (read-out: IC50 (nM) Mean) and at human NTSR-1 (read-out: LogIC50 Mean (converted)) was 2.05 nM throughout. Besides, the “binding affinity to NTR1 as an antagonist” value at NTR1 is reported as “high binding affinity”.

The values above are taken from patent US20240287046A1, “COMPOUNDS AND RADIOLIGANDS FOR TARGETING NEUROTENSIN RECEPTOR AND USES THEREOF” (Full-Life Technologies HK Limited, priority 2022, published 2024).
